Results reported in patent US11230538B2, “Herbicides” (SYNGENTA PARTICIPATIONS AG, priority 2016, dated 2022).

Key:
Format in all cases: in vivo
[1] = tested on: Lolium perenne (LOLPE); assay: B1 Pre-emergence herbicidal activity; parameters: key to Pre-emergence herbicidal activity, LOLPE (damage score 0-5): 5=total damage to plant; 0=no damage to plant; conditions: pre-emergence application, evaluated after 13 days
Outline: (§1)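 Damage was rated 13 days after treatment, from 0 for none to 5 for total. The spray, in acetone/water 50:50 with 0.5% Tween 20, was applied pre-emergence, one day after seeds were sown in soil. Plants grew under glasshouse control at 24/16 °C, 14 h light, 65% humidity.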

[2] = tested on: Echinochloa crus-galli (ECHCG); assay: B2 Post-emergence herbicidal activity; parameters: key to Post-emergence herbicidal activity, ECHCG (damage score 0-5): 5=total damage to plant; 0=no damage to plant; conditions: post-emergence application, evaluated after 13 days
Outline: (§2)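 Injury was rated 13 days after treatment from 0 (no damage) to 5 (total damage). The spray, applied 8 days after sowing, was an aqueous solution of the active ingredient from an acetone/water (50:50) formulation with 0.5% Tween 20. Plants were kept at 24/16° C, 14 h light, 65% humidity.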

[3] = tested on: Lolium perenne (LOLPE); assay: B2 Post-emergence herbicidal activity; conditions: post-emergence application, evaluated after 13 days
Outline: as §2

[4] = tested on: Echinochloa crus-galli (ECHCG); assay: B1 Pre-emergence herbicidal activity; parameters: key to Pre-emergence herbicidal activity, ECHCG (damage score 0-5): 5=total damage to plant; 0=no damage to plant; conditions: pre-emergence application, evaluated after 13 days
Outline: as §1

[5] = tested on: Alopecurus myosuroides (ALOMY); assay: B2 Post-emergence herbicidal activity; parameters: key: 5=total damage to plant; 0=no damage to plant; conditions: post-emergence application, evaluated after 13 days
Outline: as §2

[6] = tested on: Triticum aestivium (TRZAW); assay: B2 Post-emergence herbicidal activity; parameters: key: 5=total damage to plant; 0=no damage to plant; conditions: post-emergence application, evaluated after 13 days
Outline: as §2

[7] = tested on: Setaria fabenri (SETFA); assay: B2 Post-emergence herbicidal activity; parameters: key: 5=total damage to plant; 0=no damage to plant; conditions: post-emergence application, evaluated after 13 days
Outline: as §2

[8] = tested on: Avena fatua (AVEFA); assay: B2 Post-emergence herbicidal activity; conditions: post-emergence application, evaluated after 13 days
Outline: as §2

[9] = tested on: Setaria fabenr (SETFA); assay: B1 Pre-emergence herbicidal activity; parameters: key to Pre-emergence herbicidal activity, SETFA (damage score 0-5): 5=total damage to plant; 0=no damage to plant; conditions: pre-emergence application, evaluated after 13 days
Outline: as §1

[10] = tested on: Alopecurus myosuroides (ALOMY); assay: B1 Pre-emergence herbicidal activity; parameters: key: 5=total damage to plant; 0=no damage to plant; conditions: pre-emergence application, evaluated after 13 days
Outline: as §1

[11] = tested on: Triticum aestivium (TRZAW); assay: B1 Pre-emergence herbicidal activity; parameters: key: 5=total damage to plant; 0=no damage to plant; conditions: pre-emergence application, evaluated after 13 days
Outline: as §1

[12] = tested on: Avena fatua (AVEFA); assay: B1 Pre-emergence herbicidal activity; parameters: key: 5=total damage to plant; 0=no damage to plant; conditions: pre-emergence application, evaluated after 13 days
Outline: as §1

Compound | Pre-emergence herbicidal activity, LOLPE (damage score 0-5) ([1]; rate 1000 g/ha) | Post-emergence herbicidal activity, ECHCG (damage score 0-5) ([2]; rate 1000 g/ha) | Post-emergence herbicidal activity, LOLPE (damage score 0-5) ([3]; rate 1000 g/ha) | Pre-emergence herbicidal activity, ECHCG (damage score 0-5) ([4]; rate 1000 g/ha) | Post-emergence herbicidal activity, ALOMY (damage score 0-5) ([5]; rate 1000 g/ha) | Post-emergence herbicidal activity, TRAZW (damage score 0-5) ([6]; rate 1000 g/ha) | Post-emergence herbicidal activity, SETFA (damage score 0-5) ([7]; rate 1000 g/ha) | Post-emergence herbicidal activity, AVEFA (damage score 0-5) ([8]; rate 1000 g/ha) | Pre-emergence herbicidal activity, SETFA (damage score 0-5) ([9]; rate 1000 g/ha) | Pre-emergence herbicidal activity, ALOMY (damage score 0-5) ([10]; rate 1000 g/ha) | Pre-emergence herbicidal activity, TRAZW (damage score 0-5) ([11]; rate 1000 g/ha) | Pre-emergence herbicidal activity, AVEFA (damage score 0-5) ([12]; rate 1000 g/ha) | also measured
COC(=O)CCC(=O)N(C(=O)CCC(=O)OC)c1ccc(-c2cncc(F)c2)nc1C(F)(F)F [Compound C119] | 1 | 5 | 3 | 5 | 1 | 3 | 5 | 4 | 5 | 0 | 0 | 2 | –
CCC(=O)N(C)c1ccc(-c2cncc(F)c2)nc1C(F)(F)F [Compound C15, N-[6-(5-fluoro-3-pyridyl)-2-(trifluoromethyl)-3-pyridyl]-N-methyl-propanamide] | 1 | 5 | 3 | 5 | 1 | 1 | 5 | 3 | 5 | 0 | 0 | 0 | –
O=C1CCCCN1c1ccc(-c2cncc(F)c2)nc1C(F)(F)F [Compound C54, 1-[6-(5-fluoro-3-pyridyl)-2-(trifluoromethyl)-3-pyridyl]piperidin-2-one] | 1 | 5 | 3 | 2 | 1 | 0 | 4 | 3 | 3 | 0 | 0 | 1 | –
O=C(Nc1ccc(-c2cncc(F)c2)nc1C(F)(F)F)c1cccnc1 [Compound C50, N-[6-(5-fluoro-3-pyridyl)-2-(trifluoromethyl)-3-pyridyl]pyridine-3-carboxamide] | 1 | 2 | 1 | 3 | 1 | 0 | 4 | 3 | 4 | 0 | 0 | 1 | –
CC(C)C(=O)N(CC#N)c1ccc(-c2cncc(F)c2)nc1C(F)(F)F [Compound C58] | 0 | 4 | 1 | 3 | 0 | 0 | 5 | 2 | 5 | 0 | 0 | 0 | –
O=C(Nc1ccc(-c2cncc(F)c2)nc1C(F)(F)F)c1nccs1 [Compound C117] | – | – | – | – | – | – | – | – | – | – | – | – | Pre-emergence herbicidal activity, LOLPE (damage score 0-5) ([1]; rate 250 g/ha): 0; Post-emergence herbicidal activity, ECHCG (damage score 0-5) ([2]; rate 250 g/ha): 1; Post-emergence herbicidal activity, LOLPE (damage score 0-5) ([3]; rate 250 g/ha): 1; Pre-emergence herbicidal activity, ECHCG (damage score 0-5) ([4]; rate 250 g/ha): 1; Post-emergence herbicidal activity, ALOMY (damage score 0-5) ([5]; rate 250 g/ha): 1; Post-emergence herbicidal activity, TRAZW (damage score 0-5) ([6]; rate 250 g/ha): 0; Post-emergence herbicidal activity, SETFA (damage score 0-5) ([7]; rate 250 g/ha): 4; Post-emergence herbicidal activity, AVEFA (damage score 0-5) ([8]; rate 250 g/ha): 3; Pre-emergence herbicidal activity, SETFA (damage score 0-5) ([9]; rate 250 g/ha): 2; Pre-emergence herbicidal activity, ALOMY (damage score 0-5) ([10]; rate 250 g/ha): 0; Pre-emergence herbicidal activity, TRAZW (damage score 0-5) ([11]; rate 250 g/ha): 0; Pre-emergence herbicidal activity, AVEFA (damage score 0-5) ([12]; rate 250 g/ha): 0
CCC(=O)N(C(C)=O)c1ccc(-c2cncc(F)c2)nc1C(F)(F)F [Compound C121, N-acetyl-N-[6-(5-fluoro-3-pyridyl)-2-(trifluoromethyl)-3-pyridyl]propanamide] | – | – | – | – | – | – | – | – | – | – | – | – | Pre-emergence herbicidal activity, LOLPE (damage score 0-5) ([1]; rate 250 g/ha): 1; Post-emergence herbicidal activity, ECHCG (damage score 0-5) ([2]; rate 250 g/ha): 4; Post-emergence herbicidal activity, LOLPE (damage score 0-5) ([3]; rate 250 g/ha): 3; Pre-emergence herbicidal activity, ECHCG (damage score 0-5) ([4]; rate 250 g/ha): 3; Post-emergence herbicidal activity, ALOMY (damage score 0-5) ([5]; rate 250 g/ha): 1; Post-emergence herbicidal activity, TRAZW (damage score 0-5) ([6]; rate 250 g/ha): 1; Post-emergence herbicidal activity, SETFA (damage score 0-5) ([7]; rate 250 g/ha): 5; Post-emergence herbicidal activity, AVEFA (damage score 0-5) ([8]; rate 250 g/ha): 4; Pre-emergence herbicidal activity, SETFA (damage score 0-5) ([9]; rate 250 g/ha): 5; Pre-emergence herbicidal activity, ALOMY (damage score 0-5) ([10]; rate 250 g/ha): 0; Pre-emergence herbicidal activity, TRAZW (damage score 0-5) ([11]; rate 250 g/ha): 0; Pre-emergence herbicidal activity, AVEFA (damage score 0-5) ([12]; rate 250 g/ha): 2
CCOC(=O)CC(=O)Nc1ccc(-c2cncc(F)c2)nc1C(F)(F)F [Compound C42] | 1 | 5 | 2 | 4 | 0 | 1 | 5 | 4 | 4 | 0 | 0 | 2 | –
C#CCN(C(=O)C(C)C)c1ccc(-c2cncc(F)c2)nc1C(F)(F)F [Compound C61] | 0 | 4 | 2 | 3 | 1 | 0 | 4 | 2 | 5 | 0 | 0 | 1 | –
